# System: common mosquito (Culex pipiens pallens)
# Experiment: Test Example 1: mortality of larvae and inhibition of emergence of common mosquito
# Format: in vivo
# Settings: for Inhibitory ratio of emergence: 3.5 ppm, counted when all mosquitoes of no treatment group had emerged; for mortality at 3.5 ppm: Culex pipiens, 24 h, last instar larvae, after one day
# Description: The emulsifiable concentrates of the following present compounds obtained according to Formulation example 2 were each diluted with water so as to obtain respective aqueous solutions containing 3.5 ppm of said compounds, respectively. One hundred ml of thus diluted aqueous solutions were poured into respective polyethylene cups of 180 ml volume, and 20 of the last instar larvae of common mosquito (Culex pipiens pallens) were liberated thereto. After one day, the dead or alive of the larvae were examined. Thereafter, the feed was added to respective cups and the number of emerged mosquitoes of the respective cups was counted when all the mosquitoes of no treatment group had […] to calculate the inhibitory ratios of the emergence. The mortality and the inhibitory ratio of the emergence are shown according to the following three criteria: mortality: A; 90% or more, […] inhibitory: A; 90% or more, ratio of emergence B; less than 90% to 80% C; less than 80%.
SMILES,Inhibitory ratio of emergence,mortality at 3.5 ppm
"C#CC(C)(CCCc1ccc(F)c(Oc2ccccc2)c1)c1ccc(OC)cc1 (centres unmarked) [(5), 3-(4-Methoxyphenyl)-3-methyl-6-(3-phenoxy-4-fluorophenyl)-1-hexyne]",A (90% or more),> 90%
"C#CC(C)(CCCc1ccc(F)c(Oc2ccccc2)c1)c1ccc(F)cc1 (centres unmarked) [(9), 3-(4-Fluorophenyl)-3-methyl-6-(3-phenoxy-4-fluorophenyl)-1-hexyne]",A (90% or more),> 90%
"C#CC(C)(CCCc1ccc(F)c(Oc2ccccc2)c1)c1ccc2c(c1)OCO2 (centres unmarked) [(12), 3-(3,4-Methylenedioxyphenyl)-3-methyl-6-(3-phenoxy-4-fluorophenyl)-1-hexyne]",A (90% or more),> 90%
"C#CC(C)(CCCc1cccc(Oc2ccccc2)c1)c1ccc2c(c1)OCO2 (centres unmarked) [(14), 3-(3,4-Methylenedioxyphenyl)-3-methyl-6-(3-phenoxyphenyl)-1-hexyne]",A (90% or more),> 90%
"C#CC(C)(CCCc1cccc(Oc2ccc(F)cc2)c1)c1ccc(OCC)cc1 (centres unmarked) [(15), 3-(4-Ethoxyphenyl)-3-methyl-6-{3-(4-fluorophenoxy)phenyl}-1-hexyne]",A (90% or more),> 90%
"C=CC(C)(CCCc1cccc(Oc2ccccc2)n1)c1ccc(OCC)cc1 (centres unmarked) [(19), 3-(4-Ethoxyphenyl)-3-methyl-6-(6-phenoxypyridin-2-yl)-1-hexene]",A (90% or more),10 to 90%
"C#CC(C)(CCCc1ccc(F)c(Nc2ccccc2)c1)c1ccc(OCC)cc1 (centres unmarked) [(21), 3-(4-Ethoxyphenyl)-3-methyl-6-(3-anilino-4-fluorophenyl)-1-hexyne]",A (90% or more),> 90%
"C#CC(C)(CCCc1cccc(Sc2ccccc2)c1)c1ccc(OCC)cc1 (centres unmarked) [(22), 3-(4-Ethoxyphenyl)-3-methyl-6-(3-phenylthiophenyl)-1-hexyne]",A (90% or more),10 to 90%
"C#CC(C)(CCCc1cccc(Oc2ccccc2)c1)c1ccc(CC)cc1 (centres unmarked) [(23), 3-(4-Ethylphenyl)-3-methyl-6-(3-phenoxyphenyl)-1-hexyne]",A (90% or more),> 90%
"C#CC(C)(CCCc1cccc(Oc2ccccc2)c1)c1ccc(OC)cc1 (centres unmarked) [(24), 3-(4-Methoxyphenyl)-3-methyl-6-(3-phenoxyphenyl)-1-hexyne]",A (90% or more),10 to 90%
"C#CC(CC)(CCCc1cccc(Oc2ccccc2)c1)c1ccc(Cl)cc1 (centres unmarked) [(26), 3-(4-Chlorophenyl)-3-ethyl-6-(3-phenoxyphenyl)-1-hexyne]",A (90% or more),> 90%
C#CC(C)(CCCc1ccc(F)c(Oc2ccccc2)c1)c1ccc(OC(F)F)c(Cl)c1 (centres unmarked) [(27)],A (90% or more),10 to 90%
"C#CC(CCCc1cccc(Oc2ccccc2)c1)c1ccc(OCC)cc1 (centres unmarked) [(28), 3-(4-Ethoxyphenyl)-6-(3-phenoxyphenyl)-1-hexyne]",A (90% or more),> 90%
"C#CC(CC)(CCCc1ccc(F)c(Oc2ccccc2)c1)c1ccc(OCC)cc1 (centres unmarked) [(29), 3-(4-Ethoxyphenyl)-3-ethyl-6-(3-phenoxy-4-fluorophenyl)-1-hexyne]",A (90% or more),> 90%
"C#CC(C)(CCCc1ccc(F)c(Cc2ccccc2)c1)c1ccc(OCC)cc1 (centres unmarked) [(30), 3-(4-Ethoxyphenyl)-3-methyl-6-(3-benzyl-4-fluorophenyl)-1-hexyne]",A (90% or more),> 90%
"C=CC(C)(CCCc1ccc(F)c(Nc2ccccc2)c1)c1ccc(OCC)cc1 (centres unmarked) [(31), 3-(4-Ethoxyphenyl)-3-methyl-6-(3-anilino-4-fluorophenyl)-1-hexene]",A (90% or more),> 90%
